According to ChEMBL document CHEMBL1130711, “Identification of novel nucleotide phosphonate analogs with potent anti-HCMV activity” (Bioorg Med Chem Lett, 1998):
In brackets after ≈: the same amount, converted by molar mass.

Tests used:
[1] = tested on: MRC5; assay: (§1) Compound was tested for cytotoxicity by measuring inhibition of MRC-5 cell proliferation.; format: functional, cell-based; details: Homo sapiens
[2] = tested on: WI-38; assay: Compound was tested for antiviral activity against WI-38 cell line using a plaque reduction assay; 0.1-1; format: functional, cell-based; details: Homo sapiens
[3] = tested on: MRC5; assay: as §1; format: functional; details: Homo sapiens
[4] = tested on: WI-38; assay: Compound was tested for antiviral activity against WI-38 cell line using a plaque reduction assay; 10-100; format: functional; details: Homo sapiens
[5] = tested on: WI-38; assay: (§2) Compound was tested for antiviral activity against WI-38 cell line using a plaque reduction assay; format: functional, cell-based; details: Homo sapiens
[6] = tested on: WI-38; assay: as §2; format: functional; details: Homo sapiens
[7] = tested on: Human betaherpesvirus 5; assay: Compound was tested for antiviral activity against human cytomegalovirus (HCMV).; format: functional, organism-based
[8] = tested on: Human betaherpesvirus 5; assay: Compound was tested for cytotoxicity against human cytomegalovirus (HCMV).; format: functional
[9] = tested on: WI-38; assay: Compound was tested for antiviral activity against WI-38 cell line using a plaque reduction assay; 10-50; format: functional; details: Homo sapiens
[10] = tested on: WI-38; assay: Compound was tested for antiviral activity against WI-38 cell line using a plaque reduction assay; 0.5-1; format: functional, cell-based; details: Homo sapiens

SMILES: Nc1nc(O)c2ncn(C[C@@H]3CC[C@@H](P(=O)(O)O)O3)c2n1
- IC50 [1]: 0.11 µg/mL (≈ 0.349 µM)
- IC50 [2]: 0.1 µg/mL (≈ 0.317 µM)
- CC50 [3]: 28 µg/mL (≈ 88.8 µM)
- CC50 [4]: 10 µg/mL (≈ 31.7 µM)

SMILES: Nc1nc(N)c2ncn(C[C@@H]3CC[C@H](P(=O)(O)O)O3)c2n1
- IC50 [5]: > 50 µg/mL
- CC50 [6]: > 100 µg/mL

SMILES: Nc1nc(O)c2ncn(C[C@H]3CC[C@H](P(=O)(O)O)O3)c2n1
- IC50 [5]: > 10 µg/mL
- CC50 [6]: > 100 µg/mL

SMILES: Nc1nc(N)c2ncn(C[C@H]3CC[C@H](P(=O)(O)O)O3)c2n1
- IC50 [5]: > 50 µg/mL
- CC50 [6]: > 100 µg/mL

SMILES: Nc1nc(O)c2ncn(C[C@H]3CC[C@@H](P(=O)(O)O)O3)c2n1
- IC50 [5]: > 10 µg/mL
- CC50 [6]: 100 µg/mL (≈ 317 µM)

SMILES: Nc1nc(N)c2ncn(C[C@@H]3CC[C@@H](P(=O)(O)O)O3)c2n1
- IC50 [5]: 50 µg/mL (≈ 159 µM)
- CC50 [6]: > 100 µg/mL

SMILES: Nc1nc(O)c2ncn(C[C@@H]3CO[C@H](P(=O)(O)O)O3)c2n1
- IC50 [7]: 45 µg/mL (≈ 142 µM)
- CC50 [8]: > 100 µg/mL

SMILES: Nc1nc2c(ncn2COC(CO)CO)c(=O)[nH]1 [GANCICLOVIR]
- IC50 [1]: 2.1 µg/mL (≈ 8.23 µM)
- CC50 [3]: > 100 µg/mL

SMILES: Nc1ccn(C[C@@H](CO)OCP(=O)(O)O)c(=O)n1.O.O [CIDOFOVIR]
- IC50 [1]: 0.04 µg/mL
- CC50 [9]: 10 µg/mL
- IC50 [2]: 0.1 µg/mL
- CC50 [3]: 19 µg/mL

SMILES: Nc1ncc2ncn(C[C@@H]3CC[C@H](P(=O)(O)O)O3)c2n1
- IC50 [5]: 100 µg/mL (≈ 334 µM)
- CC50 [6]: > 100 µg/mL

SMILES: Nc1nc(N)c2ncn(C[C@H]3CC[C@@H](P(=O)(O)O)O3)c2n1
- IC50 [5]: > 50 µg/mL
- CC50 [6]: > 100 µg/mL

SMILES: Nc1nc(O)c2ncn(C[C@@H]3CC[C@H](P(=O)(O)O)O3)c2n1
- IC50 [10]: 0.5 µg/mL (≈ 1.59 µM)
- IC50 [1]: 1.6 µg/mL (≈ 5.08 µM)
- CC50 [9]: 10 µg/mL (≈ 31.7 µM)
- CC50 [3]: > 10 µg/mL
